Source: patent publication US20260028319A1, “INTERMEDIATE SALT FOR THE PREPARATION OF BIS(FLUOROALKYL) BENZODIAZEPINONE COMPOUNDS” (Immunome, Inc., priority 2022, published 2026)

What was measured:
Type in all cases: physicochemical
[1] = (I-1) and (1) stability study, water content by KF; conditions: for Water content (by KF) following storage: 6 months; for Water content (by KF), Initial Results: before storage
Procedure: (§1) Assay and water content of the oily free acid (I-1) were tested following a 6-month period in 25° C./60% RH (relative humidity) and 40° C./75% RH (Table 2a).

[2] = (I-1) and (1) stability study, assay by HPLC; conditions: for Stability, in words: free acid versus CHA salt; for Assay (by HPLC), Initial Results: before storage
Procedure: as §1
Similarly, the corresponding CHA salt (1), which is a powder, was tested for its purity/assay:
It could be stipulated that increased water amount over time in the free acid gives rise to the observed assay which deteriorates as the test progresses.

[3] = Stability of Na, CHA and tBuNH2 salts of (I-1), GC/MS assay
Procedure: Na and tBuNH2 salts of (I-1) were prepared. Stability of the salts was tested and compared to the stability of the CHA salt ((1)).
Table 3 also emphasizes that specific salts of (I-1) provide high purity over time. However, it cannot be said that any possible salt (any possible cation) of (I-1) will give rise to such high stability over time.

Compound | Water content (by KF) following storage ([1]; 25° C./60% RH) [%] | Water content (by KF) following storage ([1]; 40° C./75% RH) [%] | Water content (by KF), Initial Results [1] [%] | Assay by HPLC ([2]; 1 month, 2-8° C.) [% w/w] | Assay by HPLC ([2]; 1 month, 25° C./60% RH) [% w/w] | Assay by HPLC ([2]; 1 month, 40° C./75% RH) [% w/w] | Assay by HPLC ([2]; 3 months, 2-8° C.) [% w/w] | Assay by HPLC ([2]; 3 months, 25° C./60% RH) [% w/w] | Assay by HPLC ([2]; 3 months, 40° C./75% RH) [% w/w] | Assay by HPLC ([2]; 6 months, 2-8° C.) [% w/w] | Assay (by HPLC) following storage ([2]; 6 months, 25° C./60% RH) [% w/w] | Assay (by HPLC) following storage ([2]; 6 months, 40° C./75% RH) [% w/w] | Stability, in words [2] | Assay (by HPLC), Initial Results [2] [% w/w] | Purity (GC/MS assay) At 2-8° C. for 1 week ([3]; 2-8° C., 1 week) [% w/w] | Purity (GC/MS assay) At 45° C. for 1 week ([3]; 45° C., 1 week) [% w/w] | Stability among salts of (I-1), in words ([3]; Na, CHA and tBuNH2 salts compared) | Stability, in words ([2]; listed as free acid compound)
CC(C)(C)OC(=O)C[C@@H](CCC(F)(F)F)C(=O)O [(1)] | 0.3 | 0.3 | 0.2 | 96.2 | 94.8 | 94.3 | 95.1 | 94.5 | 93.0 | 94.6 | 95.1 | 94.4 | much more stable | 95.0 | 95.8 | 98.2 | most stable salt | 
CC(C)(C)OC(=O)C[C@@H](CCC(F)(F)F)C(=O)O [(I-1), (2R)-2-(2-tert-Butoxy-2-oxoethyl)-5,5,5-trifluoropentanoic acid, reference compound] | 2.0 | 2.3 | 0.8 |  |  |  |  |  |  |  | 92.8 | 84.5 |  | 93.5 |  |  |  | unstable
